In patent US20230416330A1, “Optimized GIP Peptide Analogues” (Antag Therapeutics ApS, priority 2019, published 2023):
Starred links: 1 amine or outer side, 2 acyl side, 3 side chain; linkers in the order of their positions; H or OH if unused. Non-standard residues stand in square brackets, D forms with d. Residues, ends and D or L forms follow the SMILES beside them. *: point of attachment. C16 diacid = O=C(O)CCCCCCCCCCCCCCC(=O)*; Glutaryl = O=C(CCCC(=O)[*:2])[*:1]; Aib = CC(C)(N)C(=O)O

Legend:
[1] = Physical stability: fibril formation in Thioflavin T (ThT) assay with agitation; assay type: physicochemical; settings: 25° C., agitation
Protocol: Continuous measurement of the fluorescence emission at 486 nm can be used as a measure of fibrillation behavior of peptides and proteins. The time until onset of fibrillation or fibrillation lag time is estimated here by defining the lag time (Tlag) as the point in time where the signal relative to the pre-transition baseline has reached 10% of the post-transition baseline.
50 mM sodium phosphate buffer for dissolving some samples was prepared in ultrapure water (Milli-Q® Reference A+ System, Merck) with a resistivity of 18.2 MΩ·cm. The buffer was adjusted to pH 7.4 and filtered.
The ultrapure water (MilliQ) for dissolving some samples was adjusted to pH 7.4 with NaOH and filtered prior to sample preparation.
(§1) Peptides were either dissolved in sodium phosphate buffer (50 mM, pH 7.4, filtered) or dissolved in ultrapure (MilliQ) water (adjusted to pH 7.4 with NaOH, filtered) (see Table 3). All peptide samples were prepared to a concentration of 1, 5, 7.5 or 15 mg/ml. All samples, with the exception of reference peptides GIP(3-30), AT158, and AT482 dissolved readily and produced clear and colorless solutions with gentle mixing. Peptide samples were subsequently filtered through 0.22 μm nylon filters (Q-Max® RR syringe filter, 13 mm, Frisenette, DK) to produce particle-free solutions. All samples were added to a 96-well plate reader for the ThT assay at t=0.
For each sample, […] ThT (1 mM) was added to 1.2 mL peptide solution. From this sample mixture, an amount of 200 uL/well was pipetted into four or five wells (n=4 or 5). Blank samples (buffer+ThT) were also included. One 3 mm silica bead was added to each well containing samples and the plate was subjected to orbital rotation at 300 rpm to agitate and stress the samples. The temperature was kept at 25° C. throughout the measurement.

[2] = Solubility by visual inspection of peptide solutions; assay type: physicochemical
Protocol: as §1
Clear visual appearance may be taken as an indicator of the immediate solubility of the peptide. […] Thus, A13Aib and/or N24E substitutions appear to increase solubility.

SMILES | Avr lag time (h) ([1]; 1 mg/ml, TFA, Phosphate (7.4)) | Avr lag time (h) ([1]; 7.5 mg/ml, Na, MilliQ (8)) | Avr lag time (h) ([1]; 15 mg/ml, Na, MilliQ (8)) | Visual appearance ([2]; 1 mg/ml, TFA, Phosphate (7.4)) | Visual appearance ([2]; 7.5 mg/ml, Na, MilliQ (8)) | Visual appearance ([2]; 15 mg/ml, Na, MilliQ (8)) | Avr lag time ([1]; 1 mg/ml, TFA, Phosphate (7.4)) [h]
CC[C@H](C)[C@H](NC(=O)[C@H](CCCCN)NC(=O)[C@H](CCC(=O)O)NC(=O)[C@H](CC(C)C)NC(=O)C(C)(C)NC(=O)[C@@H](NC(=O)[C@H](CO)NC(=O)[C@H](Cc1ccc(O)cc1)NC(=O)[C@H](CCC(=O)O)NC(=O)[C@H](CO)NC(=O)[C@@H](NC(=O)[C@H](Cc1ccccc1)NC(=O)[C@@H](NC(=O)CNC(=O)CCCC(=O)O)[C@@H](C)O)[C@@H](C)CC)[C@@H](C)CC)C(=O)N[C@@H](CCCCNC(=O)CCCCCCCCCCCCCCC(=O)O)C(=O)N[C@@H](CCC(N)=O)C(=O)N[C@@H](CCC(N)=O)C(=O)N[C@@H](CCC(=O)O)C(=O)N[C@@H](Cc1ccccc1)C(=O)N[C@H](C(=O)N[C@@H](CCC(=O)O)C(=O)N[C@@H](Cc1c[nH]c2ccccc12)C(=O)N[C@@H](CC(C)C)C(=O)N[C@@H](CC(C)C)C(=O)N[C@@H](C)C(=O)N[C@@H](CCC(N)=O)C(=O)N[C@@H](CCCCN)C(=O)N1CCC[C@H]1C(=O)N[C@@H](CO)C(=O)N[C@@H](CO)C(=O)NCC(=O)N[C@@H](C)C(=O)N1CCC[C@H]1C(=O)N1CCC[C@H]1C(=O)N1CCC[C@H]1C(=O)N[C@@H](CO)C(=O)O)C(C)C [AT717] (Glutaryl-GTFISEYSI[Aib]LEKIK(C16 diacid)QQEFVEWLLAQKPSSGAPPPS-OH) | fnd (Fnd = fibrils not detected within experiment time (96 hours) with agitation.) | fnd (Fnd = fibrils not detected within experiment time (96 hours) with agitation.) | fnd (Fnd = fibrils not detected within experiment time (96 hours) with agitation.) | Clear | Clear | Clear | –
CC[C@H](C)[C@H](NC(=O)[C@H](CO)NC(=O)[C@H](Cc1ccc(O)cc1)NC(=O)[C@H](CC(=O)O)NC(=O)[C@H](CO)NC(=O)[C@@H](NC(=O)[C@H](Cc1ccccc1)NC(=O)[C@@H](NC(=O)CNC(=O)[C@@H](N)CCC(=O)O)[C@@H](C)O)[C@@H](C)CC)C(=O)N[C@@H](C)C(=O)N[C@@H](CCSC)C(=O)N[C@@H](CC(=O)O)C(=O)N[C@@H](CCCCN)C(=O)N[C@H](C(=O)N[C@@H](CCCCNC(=O)CCCCCCCCCCCCCCC(=O)O)C(=O)N[C@@H](CCC(N)=O)C(=O)N[C@@H](CCC(N)=O)C(=O)N[C@@H](CC(=O)O)C(=O)N[C@@H](Cc1ccccc1)C(=O)N[C@H](C(=O)N[C@@H](CC(N)=O)C(=O)N[C@@H](Cc1c[nH]c2ccccc12)C(=O)N[C@@H](CC(C)C)C(=O)N[C@@H](CC(C)C)C(=O)N[C@@H](C)C(=O)N[C@@H](CCC(N)=O)C(=O)N[C@@H](CCCCN)C(=O)O)C(C)C)[C@@H](C)CC [AT719] (H-EGTFISDYSIAMDKIK(C16 diacid)QQDFVNWLLAQK-OH; N-terminus assumed) | – | – | – | Clear | – | – | <8
